These results are taken from ChEMBL document CHEMBL4130354 (Eur J Med Chem, 2017).

This test deals with T1, Prostaglandin G/H synthase 2 (Ovis aries, UniProt P79208).
T1 sequence (P79208 whole entry): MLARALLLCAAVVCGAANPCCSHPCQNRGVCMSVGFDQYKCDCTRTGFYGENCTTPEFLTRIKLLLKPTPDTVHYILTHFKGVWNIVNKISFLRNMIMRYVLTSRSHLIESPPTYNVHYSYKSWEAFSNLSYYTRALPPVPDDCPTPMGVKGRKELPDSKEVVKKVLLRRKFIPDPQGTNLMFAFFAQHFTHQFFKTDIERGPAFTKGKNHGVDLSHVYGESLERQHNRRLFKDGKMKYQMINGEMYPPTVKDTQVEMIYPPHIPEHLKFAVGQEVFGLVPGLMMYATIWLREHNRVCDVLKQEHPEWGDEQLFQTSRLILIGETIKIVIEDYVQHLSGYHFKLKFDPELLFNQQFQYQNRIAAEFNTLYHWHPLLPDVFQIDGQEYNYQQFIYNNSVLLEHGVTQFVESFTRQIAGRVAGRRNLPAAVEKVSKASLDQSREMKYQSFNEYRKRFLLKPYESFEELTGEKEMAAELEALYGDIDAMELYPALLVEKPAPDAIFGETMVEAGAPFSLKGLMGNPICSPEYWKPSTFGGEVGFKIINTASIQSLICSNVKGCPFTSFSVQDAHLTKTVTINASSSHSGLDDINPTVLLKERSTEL
Kind of test: Inhibition of recombinant ovine COX2 catalytic activity using arachidonic acid as substrate preincubated for 5 mins followed by substrate and hemin addition measured after 2 mins by colorimetric method.

For `Cc1onc(-c2ccc(Cl)o2)c1-c1ccccc1`, the IC50 is more than 50 µM.
With `COc1ccc(-c2noc(CC(=O)O)c2-c2ccc(OC)cc2)cc1` [MOFEZOLAC], the IC50 was more than 50 µM.

A word on the IC50: it is the concentration at which inhibition is half-maximal.
